1 compound from paper PMC8157534 (ACS Nano, 2021) can be followed below.

For the test, the target named is TmrAB (Thermus thermophilus, UniProt Q72J04+Q72J05). Particulars: 2 mM Mg-ATP, 2 mM MgCl2, pH 7.5, 0.2% DDM, 40 °C, 8 min.
Sequence of TmrAB (Q72J05 1-600): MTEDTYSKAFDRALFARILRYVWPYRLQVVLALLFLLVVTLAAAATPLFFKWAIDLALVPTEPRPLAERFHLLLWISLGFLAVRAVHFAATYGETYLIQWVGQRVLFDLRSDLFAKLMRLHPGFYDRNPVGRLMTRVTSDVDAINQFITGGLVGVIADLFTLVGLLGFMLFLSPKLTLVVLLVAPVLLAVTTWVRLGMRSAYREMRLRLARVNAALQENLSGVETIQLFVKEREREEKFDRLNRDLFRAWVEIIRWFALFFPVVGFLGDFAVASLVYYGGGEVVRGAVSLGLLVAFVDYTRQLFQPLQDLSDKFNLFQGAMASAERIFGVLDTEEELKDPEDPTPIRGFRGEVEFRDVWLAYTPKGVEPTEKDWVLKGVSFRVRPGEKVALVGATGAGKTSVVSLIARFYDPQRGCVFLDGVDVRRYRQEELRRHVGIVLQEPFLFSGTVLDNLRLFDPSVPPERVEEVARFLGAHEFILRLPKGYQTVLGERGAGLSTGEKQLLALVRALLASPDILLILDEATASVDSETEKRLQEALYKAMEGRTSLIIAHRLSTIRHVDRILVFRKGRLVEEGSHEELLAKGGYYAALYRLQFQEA
Sequence of TmrAB (Q72J04 1-578): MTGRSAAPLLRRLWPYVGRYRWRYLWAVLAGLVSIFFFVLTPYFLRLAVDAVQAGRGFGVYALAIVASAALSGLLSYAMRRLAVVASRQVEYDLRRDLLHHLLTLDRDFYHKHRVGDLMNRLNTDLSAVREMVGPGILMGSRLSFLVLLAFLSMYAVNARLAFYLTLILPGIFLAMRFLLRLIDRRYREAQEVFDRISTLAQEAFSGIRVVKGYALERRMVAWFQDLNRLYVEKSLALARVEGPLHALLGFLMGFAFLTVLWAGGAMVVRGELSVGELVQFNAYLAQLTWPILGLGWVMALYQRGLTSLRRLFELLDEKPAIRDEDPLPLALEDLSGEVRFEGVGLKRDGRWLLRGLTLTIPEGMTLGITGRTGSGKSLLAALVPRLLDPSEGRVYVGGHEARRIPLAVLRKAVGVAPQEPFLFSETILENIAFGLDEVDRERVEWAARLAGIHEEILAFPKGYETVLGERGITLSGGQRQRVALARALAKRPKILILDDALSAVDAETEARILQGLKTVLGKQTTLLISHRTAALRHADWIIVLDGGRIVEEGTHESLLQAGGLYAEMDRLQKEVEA

For `Nc1ncnc2c1ncn2[C@@H]1O[C@H](COP(=O)(O)OP(=O)(O)OP(=O)(O)O)[C@@H](O)[C@H]1O` [ATP], the ATPase activity entry is recorded as “A high ATPase activity above background demonstrated TmrAB function (Figure 1c)”.
